Experimental data published in patent US9702007B2, “Genetic markers predictive of response to glatiramer acetate” (TEVA PHARMACEUTICALS INDUSTRIES, LTD., priority 2013, dated 2017).
Several values for one entry are separate records, joined by “and”; a condition that tells them apart may be missing. Equal values may be shown once. Read-outs that look alike come from different tables or passages of the source.

Key:
RRMS patients [1] = experiment: GALA phase 3 trial cohort: response to glatiramer acetate, ARR by predicted responder status; assay type: in vivo, human
Method: As used herein, “GALA” is a phase 3 clinical trial entitled “A Study in Subjects With Relapsing-Remitting Multiple Sclerosis (RRMS) to Assess the Efficacy, Safety and Tolerability of Glatiramer Acetate (GA) Injection 40 mg Administered Three Times a Week Compared to Placebo (GALA).” The GALA trial has the ClinicalTrials.gov Identifier NCT01067521, and additional information about the trial can be found at clinicaltrials.gov/ct2/show/NCT01067521.
(§1) Response definitions were received from patients from two large glatiramer acetate clinical trial cohorts (GALA, FORTE) and patients were categorized as responder, non-responder, extreme-responder, or extreme non-responder according to the criteria set forth in Table 1.
(§2) When analysis was conducted for all genotyped patients of the Gala and FORTE cohorts, based on the predictive model (11 SNPs and 2 clinical variables), 34% of GALA, and 42% of FORTE-patients were classified as “predicted responders”.
(§3) Analysis was conducted for all genotyped patients of the Gala and FORTE cohorts, based on the 11 SNPs in the predictive model, but without including the clinical variables, and using a threshold at ˜30% of the population classified as “predicted responders” (FIG. 9).
(§4) When analysis was conducted for all genotyped patients of the Gala and FORTE cohorts, based on the […] and 2 clinical variables, 34% of GALA, and 42% of FORTE-patients were classified as “predicted responders”.

RRMS patients [2] = experiment: FORTE phase 3 trial cohort: response to glatiramer acetate, ARR by predicted responder status; assay type: in vivo, human; details: for ARR reduced (improved) by: predicted responders vs predicted non-responders
Text: As used herein, “FORTE” is a phase 3 clinical trial entitled “Clinical Trial Comparing Treatment of Relapsing-Remitting Multiple Sclerosis (RR-MS) With Two Doses of Glatiramer Acetate (GA).” The FORTE trial has the ClinicalTrials.gov Identifier NCT00337779 and additional information, including study results can be found at clinicaltrials.gov/ct2/show/NCT00337779.
as §1, §2, §3, §4

RRMS patients [3] = experiment: Combined GALA and FORTE cohorts: patient responses by preliminary predictive model (11 SNPs and 2 clinical co-variates, threshold 0.71); assay type: in vivo, human; set-up: ARR reduced (improved) by: concentration or dose not given beside the values
Method: A predictive model was generated based on the 11 SNPs shown in tables 42, 43, 44a and 44b and the two Clinical co-variants shown in table 33.
Receiver Operating Characteristic (ROC) analysis was performed using the actual value (case or control) and predicted value for each sample from the multi-marker regression model (FIG. 1). For these preliminary analyses, two risk groups were defined using the predicted values from the multi-marker regression model. The predictive threshold value was set at 0.71 (termed “model 3”) based on a variety of factors after consultation with the Teva team and Teva MS clinical experts.
While 40% of patients were classified as “predicted non-responders” with an overall response rate of 34% (FIG. 5).

RRMS subjects = details: cited from earlier work
RRMS patients [4] = details: cited from earlier work
[5] = change in ARR <-1 and new T2 lesions = 0 and relapse free
[6] = change in ARR from previous 2 years <-1
[7] = change in ARR from previous 2 years ≧0
[8] = change in ARR ≧0 and new T2 lesions ≧1
[9] = predicted non-responders, 10 SNPs and 2 clinical variables
[10] = predicted non-responders, 11 SNPs without clinical variables
[11] = predicted non-responders, model of 11 SNPs and 2 clinical variables
[12] = predicted responders, 10 SNPs and 2 clinical variables, ± SEM
[13] = predicted responders, 11 SNPs without clinical variables, threshold ~30% of population, ± SEM
[14] = predicted responders, model of 11 SNPs and 2 clinical variables, ± SEM
[15] = predicted responders compared to predicted non-responders
[16] = predicted responders compared to the overall cohort
[17] = predicted responders compared to the overall patient cohort
[18] = predicted responders, ± standard error of the mean

Substance: glatiramer acetate
- Extreme Responders, % of cohort (RRMS patients [1]; [5]): (8.5%)
- Extreme Responders, number of samples (RRMS patients [1]; [5]): 66
- Responders, % of cohort (RRMS patients [1]; [6]): (26%)
- Responders, number of samples (RRMS patients [1]; [6]): 200
- Non-Responders, % of cohort (RRMS patients [1]; [7]): (16%)
- Non-Responders, number of samples (RRMS patients [1]; [7]): 123
- Extreme Non-Responders, % of cohort (RRMS patients [1]; [8]): (10%)
- Extreme Non-Responders, number of samples (RRMS patients [1]; [8]): 79
- annualized relapse rate (ARR) (RRMS patients [1]; [9]): 0.374±0.038
- annualized relapse rate (ARR) (RRMS patients [1]; [10]): 0.382±0.037
- annualized relapse rate (ARR) (RRMS patients [1]; [11]): 0.374±0.038
- ARR reduced (improved) by (RRMS patients [1]; predicted responders vs placebo, 10 SNPs and 2 clinical variables): 64%
- ARR reduced (improved) by (RRMS patients [1]; predicted responders vs placebo, 11 SNPs and 2 clinical variables): 64%
- ARR reduced (improved) by (RRMS patients [1]; predicted responders vs placebo, 11 SNPs without clinical variables): 71%
- ARR reduced (improved) by (RRMS patients [1]; predicted responders vs predicted non-responders, 10 SNPs and 2 clinical variables): 51%
- ARR reduced (improved) by (RRMS patients [1]; predicted responders vs predicted non-responders, 11 SNPs and 2 clinical variables): 51%
- ARR reduced (improved) by (RRMS patients [1]; predicted responders vs predicted non-responders, 11 SNPs without clinical variables): 62%
- annualized relapse rate (ARR) (RRMS patients [1]; [12]): 0.185±0.032
- annualized relapse rate (ARR) (RRMS patients [1]; [13]): 0.131±0.026
- annualized relapse rate (ARR) (RRMS patients [1]; [14]): 0.185±0.032
- Extreme Responders, % of cohort (RRMS patients [2]; [5]): (16%)
- Extreme Responders, number of samples (RRMS patients [2]; [5]): 95
- Responders, % of cohort (RRMS patients [2]; [6]): (36%)
- Responders, number of samples (RRMS patients [2]; [6]): 221
- Non-Responders, % of cohort (RRMS patients [2]; [7]): (11%)
- Non-Responders, number of samples (RRMS patients [2]; [7]): 68
- Extreme Non-Responders, % of cohort (RRMS patients [2]; [8]): (6%)
- Extreme Non-Responders, number of samples (RRMS patients [2]; [8]): 38
- annualized relapse rate (ARR) (RRMS patients [2]; [9]): 0.368±0.039
- annualized relapse rate (ARR) (RRMS patients [2]; [10]): 0.290±0.03
- annualized relapse rate (ARR) (RRMS patients [2]; [11]): 0.368±0.039
- ARR reduced (improved) by (RRMS patients [2]; 10 SNPs and 2 clinical variables): 72%
- ARR reduced (improved) by (RRMS patients [2]; 11 SNPs and 2 clinical variables): 72%
- ARR reduced (improved) by (RRMS patients [2]; 11 SNPs without clinical variables): 50%
- annualized relapse rate (ARR) (RRMS patients [2]; [12]): 0.102±0.020
- annualized relapse rate (ARR) (RRMS patients [2]; [13]): 0.145±0.029
- annualized relapse rate (ARR) (RRMS patients [2]; [14]): 0.102±0.020
- EDSS progression (RRMS patients [3]; overall cohort): 0.057
- response rate (RRMS patients [3]; overall cohort): 68%
- annualized relapse rate (ARR) (RRMS patients [3]; overall patient cohort): 0.53±0.04
- number of confirmed relapses (nrelapse) (RRMS patients [3]; overall patient cohort): 0.46±0.03
- EDSS progression (RRMS patients [3]; predicted non-responders): 0.10±0.02
- annualized relapse rate (ARR) (RRMS patients [3]; predicted non-responders): 1.04±0.08
- number of T1 enhancing lesions at month 12 (RRMS patients [3]; predicted non-responders): 1.70±0.38
- number of confirmed relapses (nrelapse) (RRMS patients [3]; predicted non-responders): 0.88±0.06
- response rate (RRMS patients [3]; predicted non-responders, Gala and Forte cohorts): 34%
- EDSS progression (RRMS patients [3]; predicted responders): 0.03±0.01
- number of T1 enhancing lesions at month 12 (RRMS patients [3]; predicted responders): 0.91±0.18
- ARR reduced (improved) by (RRMS patients [3]; [15]): 80%
- improved response rate (RRMS patients [3]; [15]): 2.7 fold
- number of T1 enhancing lesions at month 12 reduced (improved) by (RRMS patients [3]; [15]): 47%
- number of confirmed relapses reduced (improved) by (RRMS patients [3]; [15]): 78%
- improvement in response rate (RRMS patients [3]; [16]): 34%
- reduced EDSS progression (RRMS patients [3]; [16]): 49%
- ARR reduced (improved) by (RRMS patients [3]; [17]): 60%
- number of confirmed relapses reduced (improved) by (RRMS patients [3]; [17]): 58%
- EDSS progression delayed (improved) by (RRMS patients [3]; predicted responders versus predicted non-responders): 72%
- response rate (RRMS patients [3]; predicted responders, Gala and Forte cohorts): 91.1% and 91%
- annualized relapse rate (ARR) (RRMS patients [3]; [18]): 0.21±0.03
- number of confirmed relapses (nrelapse) (RRMS patients [3]; [18]): 0.19±0.03
- relapse rate reduced by (RRMS subjects; GA 20 mg vs placebo, largest controlled study): 32%
- tolerability (RRMS subjects; daily standard dose of 20 mg): generally well tolerated
- median cumulative number of Gd-enhancing lesions (RRMS subjects; over 9 months of treatment, 20 mg group): 11 lesions
- relapse rate (RRMS subjects; under GA 20 mg, largest controlled study): 1.34
- response rate (RRMS patients [4]; DRB1*1501 carriers): 81.8%
- response rate (RRMS patients [4]; non-carriers of DRB1*1501): 39.4%
- response rate (RRMS patients [4]; whole study population (N=83 RRMS)): 50%
